# Laboratory results as given in patent publication EP0436598B1, “CELL SORTING TECHNIQUE AND APPLICATIONS THEREOF” (CETUS ONCOLOGY CORPORATION, priority 1988, dated 1990).
# How the values were obtained:
# 3G8 cells = assay: MTT cell growth and viability assay after fluorescent dye labeling; type: cell-based, murine; conditions: hydroethidine at 10 µg/ml, Figure 2
# Description: (§1) The effect of fluorescent dyes on cell viability can be measured using techniques well known to those skilled in the art. A most useful technique is described by Mosmann, T., J. of Immunol. Methods, 65:55 (1983) which measures cell viability as a function of cell number. Thus, the effect of fluorescent dyes on both cell viability and cell number can be measured simultaneously. The assay is based on the conversion of colorless tetrazolium salts by mitochrondrial dehydrogenase enzymes to a detectable colored product. A favored tetrazolium salt is MTT, or (3-(4,5- dimethylthylthiazol-2-yl)-2,5- diphenyl tetrazolium bromide).
# (§2) Cell growth and viability was determined using the MTT assay as described by Mosmann, T., above. […] Each of the above cell lines was tested, and the results are shown in Figures 1, and 2 for 520C9 and 3G8 respectively. For both cell lines the assay was linear at least up to 10⁴ cells/well.
# (§3) Next, the same cell lines were labeled in the presence or absence of either rhodamine 123 or hydroethidine, and subsequently cultured for three days during which cell number was measured. Cells were labeled in the presence of 0.5 µg/ml rhodamine 123 plus 10 µM verapamil, or 5 or 10 µg/ml hydroethidine. […]
# 520C9 cells = assay: as above; type: cell-based, murine; conditions: labeled 20 minutes with hydroethidine 10 µg/ml at room temperature, washed, cultured three days in dye free medium; Figure 1
# Description: as §1, §2, §3
structure (smiles),measurement,setting,value
CCN1c2cc(N)ccc2-c2ccc(N)cc2C1c1ccccc1 (stereo not drawn) [hydroethidine],inhibition of 3G8 growth,"3G8 cells; labeled 20 minutes, cultured three days",does inhibit
same,start of inhibition of 3G8 growth,3G8 cells,about 24 hours
same,growth rate and cell numbers of 520C9 cells compared to cells grown in medium lacking the compounds,520C9 cells,virtually identical
